Laboratory results from patent EP3120851A1, “4-AMINO-6-(2,6-DICHLOROPHENYL)-8-METHYL-2-(PHENYLAMINO)-PYRIDO[2,3-D]PYRIMIDIN-7(8H)-ONE FOR TREATMENT OF SOLID CANCERS” (Pangaea Biotech S.L., priority 2015, dated 2017).

What was measured:
Test in all cases: MTT proliferation assay, single agent
Assay type in all cases: cell-based
L239R+T654M = details: SCC Lung, DDR2 mutated, 72 h, mean of several independent experiments
Procedure: (§1) The compound of formula (1) was tested using a Thiazolyl Blue Tetrazolium Bromide (MTT) proliferation assay in a panel of tumor cell lines of different origins.
(§2) All culture materials were obtained from Biological Industries (Kibbutz Beit Haemek, Israel) or Invitrogen (Paisley, Scotland, United Kingdom). The non-tumor cell lines HF and HACAT were provided by Vall d'Hebrón Hospital and GmbH, respectively. The PC9 naïve cell line was provided by Mayumi Ono and, the H3122, HCC78 and 11-18 by Daniel Costa. The PC9-GR1, PC9-GR2, PC9-GR3, PC9-GR4, PC9-GR5 and PC9-ER cell lines were derived in house by exposing the parental PC9 cell line to increasing concentrations of erlotinib (ER) or gefitinib (GR). The rest of the cell lines in which compound (1) was tested were purchased from ATCC (H23, H1975, H2228, A549, H460, Calu-6, H1650, SK-MES-1, EBC1, SNU1, AGS, N87, PC3, BxPC3, DLD1, HT29, SW48, SCC9,FaDu, AU565, Gingival, Prostate, SU-DHL-1 and A431). All cell lines were maintained in RPMI medium supplemented with 10% FBS, 50 µg/mL penicillin-streptomycin and 2 mM L-Glutamine. All cells were grown in a humidified atmosphere with 5% CO2 at 37°C.
(§3) Cell viability in response to single agent treatment was assessed by the Thiazolyl Blue Tetrazolium Bromide (MTT) (Sigma, St Louis, MO) assay. Cells from each cell line were seeded at 2000 to 10000 per well in 96-well plates. […] After treatment, cells were incubated with medium containing MTT (0.75 mg/mL in medium) for 1-2 h at 37°C. Culture medium with MTT was removed and formazan crystals reabsorbed in 100 µL DMSO (Sigma, St. Louis, MO). Cell viability was determined by measuring the absorbance at 492 nm, using a microplate reader (BioWhittaker, Walkersville, MD).
(§4) The IC50s shown are the mean of several independent experiments. Standard errors are also listed Table 2. SCC means squamous cell carcinoma, ADC means adenocarcinoma, GBM means glioblastoma.

H1703 = details: Homo sapiens, NCI-H1703, SCC Lung, DDR2 wt, 72 h, mean of several independent experiments
Procedure: as §1, §2, §3, §4

EBC-1 = details: Homo sapiens, SCC Lung, c-Met ampl, 72 h, mean of several independent experiments
Procedure: as §1, §2, §3, §4

A549 = details: Homo sapiens, Lung ADC, KRAS, 72 h, mean of several independent experiments
Procedure: as §1, §2, §3, §4

DLD1 = details: Homo sapiens, DLD-1, Colon ADC, KRAS, 72 h, mean of several independent experiments
Procedure: as §1, §2, §3, §4

PC9-ER = details: Homo sapiens, PC-9/ER, Lung ADC, EGFR ex19, 72 h, mean of several independent experiments
Procedure: as §1, §2, §3, §4

H1568 = details: NCI-H1568, Lung ADC, CD74-NRG1, 72 h, mean of several independent experiments
Procedure: as §1, §2, §3, §4

I638F = details: SCC Lung, DDR2 mutated, 72 h, mean of several independent experiments
Procedure: as §1, §2, §3, §4

HT29 = details: Homo sapiens, HT-29, Colon ADC, BRAF V600E, 72 h, mean of several independent experiments
Procedure: as §1, §2, §3, §4

SK-MES-1 = details: Homo sapiens, SCC Lung, DDR2 wt, 72 h, mean of several independent experiments
Procedure: as §1, §2, §3, §4

BxPC3 = details: Homo sapiens, BXPC-3, Pancreas, mut TP53, 72 h, mean of several independent experiments
Procedure: as §1, §2, §3, §4

L239R = details: SCC Lung, DDR2 mutated, 72 h, mean of several independent experiments
Procedure: as §1, §2, §3, §4

H322 = details: NCI-H322, Lung BAC, CD74-NRG1, 72 h, mean of several independent experiments
Procedure: as §1, §2, §3, §4

H1650 = details: Homo sapiens, NCI-H1650, Lung ADC, EGFR ex19, 72 h, mean of several independent experiments
Procedure: as §1, §2, §3, §4

H520 = details: Homo sapiens, NCI-H520, SCC Lung, DDR2 wt, 72 h, mean of several independent experiments
Procedure: as §1, §2, §3, §4

H2286 = details: Homo sapiens, NCI-H2286, SCC Lung, DDR2 mutated, 72 h, mean of several independent experiments
Procedure: as §1, §2, §3, §4

SCC9 = details: Homo sapiens, SCC-9, SCC Head&Neck, DDR2 wt, 72 h, mean of several independent experiments
Procedure: as §1, §2, §3, §4

PC3 = details: Homo sapiens, PC-3, Prostate ADC, DDR2 wt, 72 h, no standard error printed
Procedure: as §1, §2, §3, §4

PC9-GR4 = details: Lung ADC, EGFR ex19, 72 h, mean of several independent experiments
Procedure: as §1, §2, §3, §4

H460 = details: Homo sapiens, NCI-H460, Lung ADC, KRAS, 72 h, mean of several independent experiments
Procedure: as §1, §2, §3, §4

HCC366 = details: SCC Lung, DDR2 mutated, 72 h, mean of several independent experiments
Procedure: as §1, §2, §3, §4

SW48 = details: Homo sapiens, Colon ADC, EGFR ex18, 72 h, mean of several independent experiments
Procedure: as §1, §2, §3, §4

HCC78 = details: Homo sapiens, Lung ADC, ROS1-SLC34A2, 72 h, mean of several independent experiments
Procedure: as §1, §2, §3, §4

A431 = details: Homo sapiens, A-431, SCC, 72 h, mean of several independent experiments
Procedure: as §1, §2, §3, §4

H1975 = details: Homo sapiens, NCI-H1975, Lung ADC, EGFR ex21, 72 h, mean of several independent experiments
Procedure: as §1, §2, §3, §4

Cn1c(=O)c(-c2c(Cl)cccc2Cl)cc2c(N)nc(Nc3ccccc3)nc21 [Compound (1), 4-amino-6-(2,6-dichlorophenyl)-8-methyl-2-(phenylamino)-pyrido[2,3-d]pyrimidin-7(8H)-one]
IC50 (L239R+T654M): 600 nM
IC50 (H1703): 550 nM
IC50 (EBC-1): 5100 nM
IC50 (A549): 490 nM
IC50 (DLD1): 1000 nM
IC50 (PC9-ER): 1180 nM
IC50 (H1568): 2430 nM
IC50 (I638F): 100 nM
IC50 (HT29): 2000 nM
IC50 (SK-MES-1): 570 nM
IC50 (BxPC3): 1800 nM
IC50 (L239R): 750 nM
IC50 (H322): 4350 nM
IC50 (H1650): 2680 nM
IC50 (H520): 350 nM
IC50 (H2286): 50 nM
IC50 (SCC9): 4350 nM
IC50 (PC3): 3400 nM
IC50 (PC9-GR4): 2100 nM
IC50 (H460): 1000 nM
IC50 (HCC366): 830 nM
IC50 (SW48): 750 nM
IC50 (HCC78): 920 nM
IC50 (A431): 1350 nM
IC50 (H1975): 2070 nM
